Measured values reported in US20240285723A1, “COMBINATION COMPOSITIONS FOR THE TREATMENT OF PATHOGEN INFECTIONS AND ASSOCIATED COMPLICATIONS” (priority 2021, published 2024).
Where no end group is shown, it is not given here.

Legend:
LPS-injected mice = assay: LPS-induced septic shock mouse model: survival and murine sepsis score (MSS); format: in vivo; details: for disease progression (MSS), compound alone / survival (MSS<3), compound alone: BCP 25 mg/kg or pregnenolone 10 mg/kg i.p. every 12 hrs from 24 h before LPS, n=7
Method: Male wild type 8-10 weeks old mice of inbred strain C57BL/6J-RCC were obtained from Envigo Ltd. All experiments were in accordance and with the approval of the institutional animal care and use committee of Tel-Aviv University for these experiments (permit number 01-20-022). The mice were divided into treatment groups 24 hours before LPS administration. All treatments were administered intraperitoneally (IP). OGP was administered at the indicated doses only twice, 24 hrs before LPS and right before the LPS at a dose of 0.5, 5 or 15 μg/kg. Olorinab was administered at 0.33, 1, or 5 mg/kg twice a day starting 24 hours before LPS. DHEA was injected once a day at a dose of 30 mg/kg, starting 24 hr before LPS injection. β-Caryophyllene (BCP or BCP, used herein interchangeably) and Pregnenolone were injected every 12 hours starting 24 h before the LPS injection. A single IP injection of LPS was administered at 25 μg/gr dose. This study had 2 control groups as indicated in the experiments below. One that received PBS instead of the LPS injection (‘PBS’), and one that received PBS instead of the treatments (CB2 agonist or steroid) before the LPS injection (‘LPS’). For humane reasons murine sepsis score (MSS) was used as a surrogate for survival (Mai et al. Intensive Care Med Exp, 2018 Jul. 27; 6(1):20. doi: 10.1186/s40635-018-0184-3). A low MSS score (0-2) served as a surrogate for survival while mice that reached the score 3 were defined as critically ill and were euthanized.
Statistical analyses—For survival experiments, Gehan-Breslow-Wilcoxon test was used for multiple groups comparison. For disease progression Dunnett's multiple comparisons test was used. Differences between groups were considered significant when P<0.05.
A dose response experiment was conducted to test the potential effect of 5aa-OGP in the sepsis model (FIG. 1A). A single injection of 5aa-OGP was administered i.p. at 3 different doses, 0.5 μg/kg, 5 μg/kg and 15 μg/kg, 24 hours prior to the LPS injection; these concentrations were chosen based on the previous works in the lab.
In a separate experiment, mice received a single i.p. injection of the optimal dose of 5aa-OGP (5 μg/kg) and 24 hours later were intraperitoneal (i.p) injected with a lethal dose of LPS. Control mice received a single PBS injection 24 hours prior to LPS injection.
In order to test the therapeutic potential of another CB2 agonist, olorinab was tested in improving survival rate in a mouse model of septic shock induced by LPS injection. Olorinab was administered i.p. 24 hours prior to LPS injection followed by twice-daily injections of olorinab.
The combinations DHEA+olorinab and DHEA+5aa-OGP were tested versus each compound alone and versus vehicle only (no treatment) in LPS-injected mice. The mice received the first dose of treatment 24 hr before LPS injection in the treated groups. All the injections were given i.p., olorinab doses were administered twice a day, DHEA and 5aa-OGP were administered once a day. LPS was given only once.
The combination BCP+Pregnenolone was tested versus each compound alone and versus vehicle only (no treatment) in LPS-injected mice. Mice were pre-treated with ß-Caryophyllene (BCP. 25 mg/kg) and pregnenolone (Preg, 10 mg/kg), separately (FIG. 4A) and in combination 24 and 12 hrs before LPS injection (25 mg/kg) and then every 12 hrs. All the injections were given i.p., twice a day. LPS was given only once. A Murine Septic Score (MSS) was recorded every 12 hours (FIGS. 4A and 4C). Survival (FIGS. 4B and 4D) was defined as MSS<3. * P<0.05, n=7.

polymicrobial sepsis = details: mice; Oberbeck et al. 2001; cited from earlier work
[1] = tested on: patients with dcSSc or dermatomyositis; details: Phase II; dcSSc and dermatomyositis with active skin involvement; cited from earlier work
COVID-19 patients = COVID-19 patients who did not require oxygen; cited from earlier work
T-cells = assay: T-cell subsets in spleen and bone marrow of treated mice; format: in vivo, mouse; details: 5 μg/kg/day daily for 5 days; 12-week-old mice
Description: This is likely due to its strong immunosuppressive actions, including a severe weakening of the humoral/acquired immune system. Our proposed approach uses CB2 agonists that have immunomodulatory roles. On one hand, OGP strongly suppresses the innate immune system, exemplified here as inhibition of cytokine expression by activated macrophages (FIG. 6), and suppression of xylene-induced ear edema (FIG. 7). On the other hand, OGP has no suppressive effects on the adaptive/acquired system, exemplified here by the unaffected number of T cell subsets in mice treated with 5aa-OGP (FIG. 7). 12-week-old mice were injected with 5 μg/kg/day 5aa-OGP, 3 mg/kg/day HU910, or with a vehicle control daily for 5 days. The spleen and bone marrow (BM) were analyzed.

Molecule: C=C1CC/C=C(\C)CC[C@@H]2[C@@H]1CC2(C)C [BCP, β-caryophyllene]
- disease progression (MSS), compound alone (LPS-injected mice): slight beneficial effect
- survival (MSS<3), compound alone (LPS-injected mice): no significant effect

Molecule: C[C@]12CC[C@H](O)CC1=CC[C@@H]1[C@@H]2CC[C@]2(C)C(=O)CC[C@@H]12 [DHEA, Dehydroepiandrosterone]
- TNF-α release (polymicrobial sepsis): reduction
- activity of T-cellular immunity (polymicrobial sepsis): improved activity
- survival in septic challenge (polymicrobial sepsis): increased survival

Molecule: CCCCCCC(C)(C)c1cc(O)c2c(c1)OC(C)(C)[C@@H]1CC=C(C(=O)O)C[C@@H]21 [Lenabasum]
- physician-assessed and patient-reported efficacy outcomes [1]: improvement

Molecule: CC(=O)[C@H]1CC[C@H]2[C@@H]3CC=C4C[C@@H](O)CC[C@]4(C)[C@H]3CC[C@]12C [Pregnenolone, pregn-5-en-3β-ol-20-one]
- disease progression (MSS), compound alone (LPS-injected mice): no significant effect
- survival (MSS<3), compound alone (LPS-injected mice): no significant effect

Molecule: C[C@@H]1C[C@H]2[C@@H]3CCC4=CC(=O)C=C[C@]4(C)[C@@]3(F)[C@@H](O)C[C@]2(C)[C@@]1(O)C(=O)CO [dexamethasone]
- mortality, patients who did not require oxygen (COVID-19 patients): significantly increased mortality

Molecule: CC(C)(C)[C@@H](CO)NC(=O)c1nn(-c2c[n+]([O-])ccn2)c2c1C[C@@H]1C[C@H]21 [olorinab]
- survival percentage at 0.33 mg/kg (LPS-injected mice; 0.33 mg/kg twice daily, i.p.): best survival percentage
- survival percentage at 1 mg/kg (LPS-injected mice; 1 mg/kg twice daily, i.p., p<0.05): best survival percentage
- survival of LPS treated mice, different doses (LPS-injected mice; olorinab 0.33, 1 or 5 mg/kg i.p. twice daily from 24 h before LPS): beneficial effect

Molecule: YGFGG [5aa-OGP]
- effect on T-cells in spleen and bone marrow (T-cells): did not affect T-cells
